Reference: US12545658B2, “Pyridine derivatives as calcium-activated chloride channel modulators” (TMEM16A LIMITED, priority 2019, dated 2026)

Legend:
[1] = target: T1, human TMEM16A (TMEM16Aabc variant) (Homo sapiens, UniProt Q5XXA6); assay: Automated whole-cell patch clamp (QPatch) TMEM16A potentiator assay in FRT cells stably expressing human TMEM16A; assay type: cell-based; settings: for QPatch TMEM16A % Potentiation @ 370 nM: 370 nM test compound; for QPatch TMEM16A % Potentiation @ 370 nM / QPatch TMEM16A % Potentation @ 3.3 μM: percentage increase of baseline TMEM16A current; for QPatch TMEM16A % Potentation @ 3.3 μM: 3.3 μM test compound; for EC50: FRT-TMEM16A cells, whole-cell patch clamp, peak current at +70 mV, intracellular calcium at EC20; for EC50 compared with Compound B: indole compounds versus comparator Compound B; for maximum potentiation of TMEM16A compared with Compound B: versus comparator Compound B
T1 construct: human TMEM16A (TMEM16Aabc variant)
T1 sequence (Q5XXA6 1-986): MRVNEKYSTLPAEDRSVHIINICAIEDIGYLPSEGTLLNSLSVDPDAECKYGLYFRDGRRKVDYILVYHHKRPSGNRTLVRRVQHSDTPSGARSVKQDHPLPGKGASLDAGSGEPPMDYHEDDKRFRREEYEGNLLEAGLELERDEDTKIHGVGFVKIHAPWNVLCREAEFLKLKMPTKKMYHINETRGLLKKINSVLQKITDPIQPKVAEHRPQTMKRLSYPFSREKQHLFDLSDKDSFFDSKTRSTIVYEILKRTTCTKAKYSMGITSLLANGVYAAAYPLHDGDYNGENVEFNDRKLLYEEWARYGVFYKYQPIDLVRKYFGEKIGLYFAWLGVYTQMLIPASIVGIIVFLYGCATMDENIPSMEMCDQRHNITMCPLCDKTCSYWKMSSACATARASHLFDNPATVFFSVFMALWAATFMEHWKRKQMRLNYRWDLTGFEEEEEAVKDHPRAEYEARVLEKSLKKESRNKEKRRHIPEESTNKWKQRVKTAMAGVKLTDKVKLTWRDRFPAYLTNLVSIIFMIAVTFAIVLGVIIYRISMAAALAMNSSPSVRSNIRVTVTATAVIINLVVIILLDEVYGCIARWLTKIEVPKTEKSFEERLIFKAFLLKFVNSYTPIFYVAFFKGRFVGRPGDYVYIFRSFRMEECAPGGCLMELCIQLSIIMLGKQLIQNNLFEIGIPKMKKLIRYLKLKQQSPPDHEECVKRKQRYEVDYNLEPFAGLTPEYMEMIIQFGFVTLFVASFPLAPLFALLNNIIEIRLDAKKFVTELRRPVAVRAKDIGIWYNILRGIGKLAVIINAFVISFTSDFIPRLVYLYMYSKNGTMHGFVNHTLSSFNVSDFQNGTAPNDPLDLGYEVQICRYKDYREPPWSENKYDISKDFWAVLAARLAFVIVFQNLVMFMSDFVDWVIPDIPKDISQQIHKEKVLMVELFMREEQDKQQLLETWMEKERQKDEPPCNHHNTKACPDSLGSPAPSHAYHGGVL
Description: Fisher rat thyroid (FRT) cells stably expressing human TMEM16A (TMEM16Aabc variant; Dr Luis Galietta, Insituto Giannina, Italy) were cultured in T-75 flasks in Hams F-12 media with Coon's modification (Sigma) supplemented with 10% (v/v) foetal bovine serum, penicillin-streptomycin (10,000 U/mL/10000 μg/mL), G-418 (750 μg/mL), L-glutamine (2 mM) and sodium bicarbonate solution (7.5% v/v). At ˜90% confluence cells were harvested for experiments by detachment with a 2:1 (v/v) mixture of Detachin (BMS Biotechnology) and 0.25% (w/v) trypsin-EDTA.
FRT-TMEM16A cells were whole-cell patch clamped using an automated planar patch clamp system (Qpatch, Sophion). Briefly, once high resistance (GOhm) seals were established between the cells and the planar recording array the patch was ruptured using suction pulses to establish the whole-cell recording configuration of the patch clamp technique. The assay employed the following solutions (all reagents Sigma): Intracellular solution (mM): N-methyl-D-glucamine 130, CaCl2 18.2, MgCl2 1, HEPES 10, EGTA 10, BAPTA 20, Mg-ATP 2, pH 7.25, 325 mOsm with sucrose.
Extracellular solution (mM): N-methyl-D-glucamine 130, CaCl2 2, MgCl2 1, HEPES 10, pH 7.3, 320 mOsm with sucrose.
The intracellular solution buffers intracellular calcium at levels required to give ˜20% activation of the maximal TMEM16A mediated current (EC20 for calcium ions). Cells were voltage clamped at a holding potential of −70 mV and a combined voltage step (to +70 mV)/ramp (−90 my to +90 mV) was applied at 0.05 Hz. After a period of current stabilisation test compounds, solubilised in 100% (v/v) DMSO and subsequently diluted into extracellular solution, were applied to generate a cumulative concentration response curve. Each concentration of test compound was incubated for 5 minutes before addition of the next concentration. After the final concentration was tested a supramaximal concentration of either a known active positive modulator or the TMEM16A inhibitor, CaCCinhA01 (Del La Fuente et al, 2008) was added to define the upper and lower limits of the assay.
Compound activity was quantified by measuring the increase in current upon compound addition and expressing this as a percentage increase of baseline TMEM16A current level.
In FIG. 1, IBL equals baseline current, I[#1] equals the peak current during test compound concentration 1 incubation period and so on.
Peak TMEM16A current at +70 mV was plotted as a function of time over the assay period. Baseline current (IBL) was measured after a period of stabilisation. The increase in current for each compound addition was determined by taking the peak current during the incubation period and subtracting the current from the previous recording period and then expressing this as a percentage of the baseline current (% potentiation). For test compound concentration 1 in FIG. 1 this is: (I[#1]−IBL/IBL)×100 For each additional concentration tested the increase in current was determined by subtracting the current from the previous incubation period and normalising the baseline value—for test concentration 2 in FIG. 1 this is: (I[#2]−I[#1])/IBL)×100 The values for each test concentration were plotted as a cumulative function of concentration eg. for test concentration two this would be the sum of the peak changes measured during concentration one plus concentration two.

[2] = Microsomal stability (human microsomes); assay type: in vitro ADME; settings: pH 7.4, 1 μM compound, 0.5 mg/mL protein, 1 mM NADPH, 37° C., read-out: Human Microsome Clint
Description: Microsomes (human) were obtained from Bioreclamation.
All Test and reference control compounds (raloxifene, diclofenac, terfenadine, propranolol, dextromethorphan and metoprolol) were dissolved to create a 100 μM stock (final concentrations; 91.5% Acetonitrile: 8.5% DMSO). Final test compound concentration in incubation was 1 μM (<0.1% DMSO).
Solution 1: 17.4 g potassium phosphate dibasic anhydrous (K2HPO4, 0.1 M) dissolved in 1 L deionised water. Solution 2: 13.6 g potassium phosphate monobasic anhydrous (KH2PO4, 0.1 M) dissolved in 1 L deionised water. pH7.4 with 2 mM magnesium chloride. NADPH (10 mM) is prepared in deionised water. Microsomes (all species) were removed from the −80° C. thawed at 37° C. Microsomes were diluted in assay buffer to achieve a final protein concentration of 0.5 mg/mL and 1 mM NADPH.
The following procedure was completed on a Perkin Elmer Janus robotic platform in 96 well format: The microsomal incubation plate was transferred to a heater shaker at 300 rpm and solution heated to 37° C. for 10 min pre-warm. A no co-factor control at 0 and 45 min and one replicates of each test compound was included in every assay. Microsomes were incubated at 37° C., on a shaker set at 300 rpm throughout the assay. […]

SMILES | QPatch TMEM16A % Potentiation @ 370 nM [1] | QPatch TMEM16A % Potentation @ 3.3 μM [1] | microsomal CLint at 1 μM [2] | EC50 [1] | EC50 compared with Compound B [1] | maximum potentiation of TMEM16A compared with Compound B [1]
C#CC(C)(C)NC(=O)c1cc(NC(=O)Cc2cccc3cc[nH]c23)ccn1 [Compound B, reference compound] | 42% | 64% | 46 µL/min/mg |  |  | 
O=C(Cc1ccc2c(C(F)(F)F)n[nH]c2c1)Nc1ccnc(C(=O)NC2(C(F)(F)F)CC2)c1 [Example 8.1, N-[1-(Trifluoromethyl)cyclopropyl]-4-[[2-[3-(trifluoromethyl)-1H-indazol-6-yl]acetyl]amino]pyridine-2-carboxamide] | 97% | 267% |  | 600 nM |  | 
O=C(Cc1ccc2cn[nH]c2c1)Nc1ccnc(C(=O)NC2(C(F)(F)F)COC2)c1 [Example 11.3, 4-[[2-(1H-Indazol-6-yl)acetyl]amino]-N-[3-(trifluoromethyl)oxetan-3-yl]pyridine-2-carboxamide] | 117% | 180% |  | 220 nM |  | 
O=C(Cc1ccc2cn[nH]c2c1)Nc1ccnc(C(=O)NC2(C(F)F)CC2)c1 [Example 11.4, N-[1-(Difluoromethyl)cyclopropyl]-4-[[2-(1H-indazol-6-yl)acetyl]amino] pyridine-2-carboxamide] | 85% | 132% |  | 210 nM |  | 
CC(C)(NC(=O)c1cc(NC(=O)Cc2ccc3cc[nH]c3c2)ccn1)C(F)(F)F [Example 13, 4-[[2-(1H-Indol-6-yl)acetyl]amino]-N-(2,2,2-trifluoro-1,1-dimethyl-ethyl) pyridine-2-carboxamide] | 47% | 93% |  | 410 nM |  | 
CC1(NC(=O)c2cc(NC(=O)Cc3ccc4cc[nH]c4c3)ccn2)CC(F)(F)C1 [Example 13.1, N-(3,3-Difluoro-1-methyl-cyclobutyl)-4-[[2-(1H-indol-6-yl)acetyl]amino] pyridine-2-carboxamide] | 113% | 115% | 199 µL/min/mg | 50 nM | lower EC50 values than Compound B | improved maximum potentiation of TMEM16A

The remaining lines, values ahead:

QPatch TMEM16A % Potentiation @ 370 nM [1] | QPatch TMEM16A % Potentation @ 3.3 μM [1] | microsomal CLint at 1 μM [2] | EC50 [1] | EC50 compared with Compound B [1] | maximum potentiation of TMEM16A compared with Compound B [1] | SMILES
47% | 82% |  | 270 nM |  |  | CC(C)(C)NC(=O)c1cc(NC(=O)Cc2cc3[nH]ncc3cc2Cl)ccn1 [Example 7.1, N-tert-Butyl-4-[[2-(5-chloro-1H-indazol-6-yl)acetyl]amino]pyridine-2-carboxamide]
102% | 142% |  | 140 nM |  |  | CC(C)(C)NC(=O)c1cc(NC(=O)Cc2cc(Cl)c3cn[nH]c3c2)ccn1 [Example 7.2, N-tert-Butyl-4-[[2-(4-chloro-1H-indazol-6-yl)acetyl]amino]pyridine-2-carboxamide]
65% | 98% |  | 210 nM |  |  | CC(C)(C)NC(=O)c1cc(NC(=O)Cc2ccc3c(C(F)(F)F)n[nH]c3c2)ccn1 [Example 8, N-tert-Butyl-4-[[2-[3-(trifluoromethyl)-1H-indazol-6-yl]acetyl]amino]pyridine-2-carboxamide]
113% | 200% |  | 280 nM |  |  | CC(C)c1n[nH]c2cc(CC(=O)Nc3ccnc(C(=O)NC(C)(C)C)c3)ccc12 [Example 9, N-tert-Butyl-4-[[2-(3-isopropyl-1H-indazol-6-yl)acetyl]amino]pyridine-2-carboxamide]
41% | 61% |  | 140 nM |  |  | O=C(Cc1ccc2cn[nH]c2c1)Nc1ccnc(C(=O)NC23CC(F)(C2)C3)c1 [Example 11.5, N-(3-Fluoro-1-bicyclo[1.1.1]pentanyl)-4-[[2-(1H-indazol-6-yl)acetyl]amino]pyridine-2-carboxamide]
204% | 338% |  | 240 nM |  |  | CC(O)(c1n[nH]c2cc(CC(=O)Nc3ccnc(C(=O)NC4(C(F)(F)F)CC4)c3)ccc12)C(F)(F)F (centres unmarked) [Example 12, 4-[[2-[3-(2,2,2-Trifluoro-1-hydroxy-1-methyl-ethyl)-1H-indazol-6-yl]acetyl]amino]-N-[1-(trifluoromethyl)cyclopropyl]pyridine-2-carboxamide]
98% | 134% |  | 130 nM | lower EC50 values than Compound B | improved maximum potentiation of TMEM16A | N#CC1(NC(=O)c2cc(NC(=O)Cc3ccc4cc[nH]c4c3)ccn2)CCOCC1 [Example 13.2, N-(4-Cyanotetrahydropyran-4-yl)-4-[[2-(1H-indol-6-yl)acetyl]amino] pyridine-2-carboxamide]
